Reference: US20140024638A1, “TREATMENT OF COGNITIVE DYSFUNCTION IN SCHIZOPHRENIA” (TARGACEPT, INC., priority 2011, published 2014)

How the values were obtained:
Type in all cases: in vivo, human
[1] = tested on: patients with schizophrenia; test: Groton Maze Learning Task (GMLT) of the CogState Schizophrenia Battery, Phase 2 trial; conditions: for GML (Total Error) LOG: Adjusted Mean / GML (Total Error) LOG: Mean Difference ± SE between TC-5619 and Placebo (Placebo-TC5619): All Patients; for GMLT primary efficacy outcome measure: result against protocol criteria: positive outcome = superiority over placebo, one-sided p-value <0.10 after adjusting for 3 comparisons (Weeks 4, 8, 12), adjusted p-value=0.054, unadjusted p 0.018 at 4 weeks, 0.041 at 12 weeks; for GMLT log (10) transformed: Mean (SE): tobacco users
Procedure: (§1) The double blind, placebo controlled Phase 2 trial was conducted at 7 sites in the United States and 12 sites in India. […] Of the randomized patients, approximately 69% were male and approximately 46% were users of tobacco products. […] The primary efficacy outcome measure was GMLT, and the trial included a number of other scales as secondary efficacy outcome measures.
The GMLT is a computerized test designed to assess executive function (the ability to organize cognitive processes, including the ability to plan, prioritize, stop and start activities, shift from one activity to another activity and to monitor one's own behavior). Impaired executive function is thought to be an important aspect of cognitive dysfunction in schizophrenia.

[2] = tested on: patients with schizophrenia; test: Scale for Assessment of Negative Symptoms (SANS), Phase 2 trial; conditions: for SANS TOTAL SCORE: Adjusted Mean / SANS TOTAL SCORE: Mean Difference ± SE between TC-5619 and Placebo (Placebo-TC5619): All Patients; for SANS: Mean (SE): tobacco users; for SANS: Mean (SEM): total population
Procedure: as §1

[3] = tested on: patients with schizophrenia; test: Subject Global Impression - Cognition scale (SGI-Cog), Phase 2 trial; conditions: for SGI-COGNITION TOTAL BY PATIENT: Adjusted Mean / SGI-COGNITION TOTAL BY PATIENT: Mean Difference ± SE between TC-5619 and Placebo (Placebo-TC5619): All Patients; for SGI-Cog: Mean (SE): tobacco users; for SGI-Cog: Mean (SEM): total population
Procedure: as §1

O=C(N[C@@H]1C2CCN(CC2)[C@H]1Cc1cccnc1)c1cc2ccccc2o1 (single isomer, unassigned) [TC-5619]
GML (Total Error) LOG: Adjusted Mean ([1]; Week 1, 1 mg daily, SE 0.01, placebo −0.02): −0.01
GML (Total Error) LOG: Mean Difference ± SE between TC-5619 and Placebo (Placebo-TC5619) ([1]; Week 1, 1 mg daily, one-sided 90% CI (−0.03, ∞), one-sided P 0.6709): −0.01 ± 0.02
GML (Total Error) LOG: Adjusted Mean ([1]; Week 4, 1 mg daily, SE 0.02, placebo 0.02): −0.03
GML (Total Error) LOG: Mean Difference ± SE between TC-5619 and Placebo (Placebo-TC5619) ([1]; Week 4, 1 mg daily, one-sided 90% CI (0.02, ∞), one-sided P 0.0180): 0.05 ± 0.02
GML (Total Error) LOG: Adjusted Mean ([1]; Week 8, 5 mg daily, SE 0.02, placebo −0.02): −0.05
GML (Total Error) LOG: Mean Difference ± SE between TC-5619 and Placebo (Placebo-TC5619) ([1]; Week 8, 5 mg daily, one-sided 90% CI (−0.00, ∞), one-sided P 0.1308): 0.02 ± 0.02
GML (Total Error) LOG: Adjusted Mean ([1]; Week 12, 25 mg daily, SE 0.02, placebo −0.02): −0.06
GML (Total Error) LOG: Mean Difference ± SE between TC-5619 and Placebo (Placebo-TC5619) ([1]; Week 12, 25 mg daily, one-sided 90% CI (0.01, ∞), one-sided P 0.0405): 0.04 ± 0.02
GMLT activity in non-users of tobacco ([1]; non-users): no activity
GMLT primary efficacy outcome measure: result against protocol criteria [1]: met the pre-defined success criteria
GMLT primary efficacy outcome measure: result against protocol criteria ([1]; listed as (2S,3R)—N-(2-((3-pyridinyl)methyl)-1-azabicyclo[2.2.2]oct-3-yl)benzofuran-2-carb): met the protocol criteria for a positive result
GMLT results, patients at study sites in United States as compared to study sites in India ([1]; subgroup comparison): favorable
GMLT results, tobacco users as compared to non-users ([1]; subgroup comparison): favorable for tobacco users as compared to non-users
GMLT log (10) transformed: Mean (SE) ([1]; Week 4, 1 mg daily, 1-tailed p = 0.014): 0.06 (.03) p = 0.014
GMLT log (10) transformed: Mean (SE) ([1]; Week 8, 5 mg daily, 1-tailed p = 0.086): 0.04 (0.03) p = 0.086
GMLT log (10) transformed: Mean (SE) ([1]; Week 12, 25 mg daily, 1-tailed p = 0.002): 0.07 (0.02) p = 0.002
GMLT log (10) transformed: Mean (SEM) ([1]; total population (tobacco users and non-users), Week 4, 1 mg daily, 1-tailed p = 0.018): 0.05 (0.02); p = 0.018
GMLT log (10) transformed: Mean (SEM) ([1]; total population, Week 8, 5 mg daily, 1-tailed p = 0.131): 0.02 (0.02); p = 0.131
GMLT log (10) transformed: Mean (SEM) ([1]; total population, Week 12, 25 mg daily, 1-tailed p = 0.041): 0.04 (0.02); p = 0.041
SANS TOTAL SCORE: Adjusted Mean ([2]; Week 1, 1 mg daily, SE 0.93, placebo −0.92): −1.20
SANS TOTAL SCORE: Mean Difference ± SE between TC-5619 and Placebo (Placebo-TC5619) ([2]; Week 1, 1 mg daily, one-sided 90% CI (−0.77, ∞), one-sided P 0.3647): 0.28 ± 0.82
SANS TOTAL SCORE: Adjusted Mean ([2]; Week 4, 1 mg daily, SE 1.11, placebo −2.74): −3.52
SANS TOTAL SCORE: Mean Difference ± SE between TC-5619 and Placebo (Placebo-TC5619) ([2]; Week 4, 1 mg daily, one-sided 90% CI (−0.74, ∞), one-sided P 0.2547): 0.78 ± 1.18
SANS TOTAL SCORE: Adjusted Mean ([2]; Week 8, 5 mg daily, SE 1.25, placebo −5.55): −7.25
SANS TOTAL SCORE: Mean Difference ± SE between TC-5619 and Placebo (Placebo-TC5619) ([2]; Week 8, 5 mg daily, one-sided 90% CI (−0.14, ∞), one-sided P 0.1184): 1.71 ± 1.44
SANS TOTAL SCORE: Adjusted Mean ([2]; Week 12, 25 mg daily, SE 1.40, placebo −6.23): −9.93
SANS TOTAL SCORE: Mean Difference ± SE between TC-5619 and Placebo (Placebo-TC5619) ([2]; Week 12, 25 mg daily, one-sided 90% CI (1.53, ∞), one-sided P 0.0147): 3.70 ± 1.68
SANS, result in words ([2]; secondary outcome measure, investigator assessment of negative symptoms): encouraging efficacy signals
SANS: Mean (SE) ([2]; Week 4, 1 mg daily, 1-tailed p = 0.098): 2.74 (2.10); p = 0.098
SANS: Mean (SE) ([2]; Week 8, 5 mg daily, 1-tailed p = 0.054): 4.00 (2.45); p = 0.054
SANS: Mean (SE) ([2]; Week 12, 25 mg daily, 1-tailed p = 0.033): 4.86 (2.58); p = 0.033
SANS: Mean (SEM) ([2]; Week 4, 1 mg daily, 1-tailed p = 0.255): 0.78 (1.18); p = 0.255
SANS: Mean (SEM) ([2]; Week 8, 5 mg daily, 1-tailed p = 0.118): 1.71 (1.44); p = 0.118
SANS: Mean (SEM) ([2]; Week 12, 25 mg daily, 1-tailed p = 0.015): 3.70 (1.68); p = 0.015
SGI-COGNITION TOTAL BY PATIENT: Adjusted Mean ([3]; Week 1, 1 mg daily, SE 0.19, placebo 11.37): 11.18
SGI-COGNITION TOTAL BY PATIENT: Mean Difference ± SE between TC-5619 and Placebo (Placebo-TC5619) ([3]; Week 1, 1 mg daily, one-sided 90% CI (−0.07, ∞), one-sided P 0.1757): 0.19 ± 0.20
SGI-COGNITION TOTAL BY PATIENT: Adjusted Mean ([3]; Week 4, 1 mg daily, SE 0.24, placebo 10.65): 10.60
SGI-COGNITION TOTAL BY PATIENT: Mean Difference ± SE between TC-5619 and Placebo (Placebo-TC5619) ([3]; Week 4, 1 mg daily, one-sided 90% CI (−0.31, ∞), one-sided P 0.4282): 0.05 ± 0.28
SGI-COGNITION TOTAL BY PATIENT: Adjusted Mean ([3]; Week 8, 5 mg daily, SE 0.29, placebo 9.80): 9.79
SGI-COGNITION TOTAL BY PATIENT: Mean Difference ± SE between TC-5619 and Placebo (Placebo-TC5619) ([3]; Week 8, 5 mg daily, one-sided 90% CI (−0.45, ∞), one-sided P 0.4914): 0.01 ± 0.36
SGI-COGNITION TOTAL BY PATIENT: Adjusted Mean ([3]; Week 12, 25 mg daily, SE 0.31, placebo 9.61): 8.95
SGI-COGNITION TOTAL BY PATIENT: Mean Difference ± SE between TC-5619 and Placebo (Placebo-TC5619) ([3]; Week 12, 25 mg daily, one-sided 90% CI (−0.16, ∞), one-sided P 0.0455): 0.66 ± 0.39
Subject Global Impression - Cognition scale, result in words ([3]; secondary outcome measure, patient self-assessment of cognitive change): encouraging efficacy signals
SGI-Cog: Mean (SE) ([3]; Week 4, 1 mg daily, 1-tailed p = 0.606): −0.13 (0.47); p = 0.606
SGI-Cog: Mean (SE) ([3]; Week 8, 5 mg daily, 1-tailed p = 0.314): 0.24 (0.49); p = 0.314
SGI-Cog: Mean (SE) ([3]; Week 12, 25 mg daily, 1-tailed p = 0.109): 0.65 (0.52); p = 0.109
SGI-Cog: Mean (SEM) ([3]; Week 4, 1 mg daily, 1-tailed p = 0.428): 0.05 (0.28); p = 0.428
SGI-Cog: Mean (SEM) ([3]; Week 8, 5 mg daily, 1-tailed p = 0.491): 0.01 (0.36); p = 0.491
SGI-Cog: Mean (SEM) ([3]; Week 12, 25 mg daily, 1-tailed p = 0.046): 0.66 (0.39); p = 0.046
